EC50 data for 17 compounds are collected here from patent publication US20250136606A1, “MODULATORS OF TRPML, THEIR COMPOSITIONS AND METHODS OF USE” (Caraway Therapeutics, Inc., priority 2021, published 2025).

Where two headings read alike, the source gives them in different places.

Assay type in all cases: cell-based
The target of one assay is T1, TRPML2 (Homo sapiens, UniProt Q8IZK6).
T1 construct: expressed in transfected cells
T1 sequence (Q8IZK6 1-566): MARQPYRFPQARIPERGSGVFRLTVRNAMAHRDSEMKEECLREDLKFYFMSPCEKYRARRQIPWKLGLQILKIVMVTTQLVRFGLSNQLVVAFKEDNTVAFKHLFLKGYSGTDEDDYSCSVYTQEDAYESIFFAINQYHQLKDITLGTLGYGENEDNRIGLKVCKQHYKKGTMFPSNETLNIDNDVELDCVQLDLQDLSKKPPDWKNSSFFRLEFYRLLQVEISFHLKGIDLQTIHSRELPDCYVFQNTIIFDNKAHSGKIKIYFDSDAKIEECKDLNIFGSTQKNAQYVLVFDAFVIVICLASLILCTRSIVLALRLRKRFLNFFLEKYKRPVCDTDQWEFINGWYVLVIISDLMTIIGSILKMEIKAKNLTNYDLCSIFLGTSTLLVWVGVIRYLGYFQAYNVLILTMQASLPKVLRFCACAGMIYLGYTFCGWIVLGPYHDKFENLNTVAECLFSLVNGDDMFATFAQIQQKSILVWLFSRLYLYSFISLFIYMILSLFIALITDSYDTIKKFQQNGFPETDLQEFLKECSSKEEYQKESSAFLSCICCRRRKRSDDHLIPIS
Put plainly: Fluorescent TRPML2 assay (performed as for TRPML1, substituting the TRPML2 subtype). The method in brief:
(§1)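 Agonist activity is scored as percent of plate controls from Fluo4 fluorescence after dye-loaded, doxycycline-induced HEK-293 Trex cells meet compound in high-calcium (10 mM) Ringer's. Compounds run in half-log dilutions from 20 micromolar final, in triplicate.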

The next assay has as its target TRPML1 (Homo sapiens, UniProt Q9GZU1). Briefly: Fluorescent TRPML1 assay (Fluo4-AM calcium fluorescence in doxycycline-induced HEK-293 Trex cells). The gist of the method:
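EC50 values come from non-linear regression of percent activity, normalized to on-plate positive and negative controls, with fluorescence read at 480 nm excitation and 540 nm emission. Fluo4-AM-loaded (1 µM) doxycycline-induced HEK-293 Trex cells expressing mutated human TRPML1 were exposed in 10 mM calcium Ringer's to 6 nM–20 µM compound, in triplicate.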

The target in the next assay is T2, TRPML3 (Homo sapiens, UniProt Q8TDD5).
T2 construct: expressed in transfected cells
T2 sequence (Q8TDD5 1-553): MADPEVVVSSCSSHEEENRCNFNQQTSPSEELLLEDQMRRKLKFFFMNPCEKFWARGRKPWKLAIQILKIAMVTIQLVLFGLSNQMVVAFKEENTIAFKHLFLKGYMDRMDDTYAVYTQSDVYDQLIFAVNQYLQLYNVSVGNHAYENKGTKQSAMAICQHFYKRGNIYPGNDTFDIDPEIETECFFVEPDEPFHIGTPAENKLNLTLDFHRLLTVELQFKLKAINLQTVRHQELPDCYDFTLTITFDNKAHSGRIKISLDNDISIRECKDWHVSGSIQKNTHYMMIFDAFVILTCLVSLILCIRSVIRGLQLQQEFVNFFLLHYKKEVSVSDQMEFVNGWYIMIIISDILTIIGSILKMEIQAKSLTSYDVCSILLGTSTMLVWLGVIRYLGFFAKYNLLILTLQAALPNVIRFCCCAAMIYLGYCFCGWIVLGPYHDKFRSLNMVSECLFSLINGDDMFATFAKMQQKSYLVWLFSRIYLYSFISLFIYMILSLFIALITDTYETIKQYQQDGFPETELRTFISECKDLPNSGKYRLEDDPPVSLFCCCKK
Put plainly: Fluorescent TRPML3 assay (performed as for TRPML1, substituting the TRPML3 subtype). The gist of the method: as §1

Chain of TRPML1 (Q9GZU1 whole entry L15A/L16A/L577A/L578A, form open): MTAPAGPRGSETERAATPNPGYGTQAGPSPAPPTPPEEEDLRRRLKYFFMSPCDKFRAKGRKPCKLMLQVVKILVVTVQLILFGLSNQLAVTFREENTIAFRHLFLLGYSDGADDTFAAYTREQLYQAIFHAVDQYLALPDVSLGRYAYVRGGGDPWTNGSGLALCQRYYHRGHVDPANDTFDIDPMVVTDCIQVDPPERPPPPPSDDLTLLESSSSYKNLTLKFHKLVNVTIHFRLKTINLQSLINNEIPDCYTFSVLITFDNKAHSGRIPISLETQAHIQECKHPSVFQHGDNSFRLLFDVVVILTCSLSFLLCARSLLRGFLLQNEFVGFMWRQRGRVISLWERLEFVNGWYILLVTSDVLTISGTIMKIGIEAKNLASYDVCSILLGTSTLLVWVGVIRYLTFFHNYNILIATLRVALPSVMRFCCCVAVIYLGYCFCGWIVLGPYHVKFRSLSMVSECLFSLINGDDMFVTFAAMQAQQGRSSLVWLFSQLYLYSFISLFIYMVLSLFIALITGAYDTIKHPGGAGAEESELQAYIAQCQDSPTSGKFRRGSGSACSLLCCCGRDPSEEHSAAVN

A word on the EC50: it is the concentration at which the effect is half-maximal. On to `C[C@@H]1CN(c2ncnc3c2c(N2CCC2)cn3-c2cccc(Cl)c2)[C@@H](C)CN1C(=O)OC(C)(C)C` [Compound 490, tert-butyl (2R,5S)-4-(5-(azetidin-1-yl)-7-(3-chlorophenyl)-7H-pyrrolo[2,3-d]pyrimidin-4-yl)-2,5-dimethylpiperazine-1-carboxylate], for which the EC50 at TRPML2 (fluorescent calcium assay), at TRPML1 (fluorescent calcium assay) and at TRPML3 (fluorescent calcium assay) was below 100 nM throughout.
On to `C[C@@H]1CN(c2ncnc3c2c(C(F)(F)F)cn3-c2cccc(Cl)c2)[C@@H](C)CN1C(=O)OC(C)(C)C` [Compound 491, tert-Butyl (2R,5S)-4-(7-(3-chlorophenyl)-5-(trifluoromethyl)-7H-pyrrolo[2,3-d]pyrimidin-4-yl)-2,5-dimethylpiperazine-1-carboxylate], for which the EC50 on TRPML2 (fluorescent calcium assay) was 100 to 500 nM; at TRPML1 (fluorescent calcium assay) it was below 100 nM; at TRPML3 (fluorescent calcium assay) it was below 100 nM.
For the compound `C[C@@H]1CN(c2ncnc3c2c(C(F)(F)F)cn3-c2cc(F)cc(F)c2)[C@@H](C)CN1C(=O)OC(C)(C)C` [Compound 492], the results for the EC50 at TRPML2 (fluorescent calcium assay), on TRPML1 (fluorescent calcium assay) and on TRPML3 (fluorescent calcium assay) were 100 to 500 nM, below 100 nM and below 100 nM, respectively.
Turning to `C[C@H]1CN(C(=O)OC(C)(C)C)CCN1c1ncnc2c1c(N1CCC1)cn2-c1cccc(Cl)c1` [Compound 493, tert-butyl (S)-4-(5-(azetidin-1-yl)-7-(3-chlorophenyl)-7H-pyrrolo[2,3-d]pyrimidin-4-yl)-3-methylpiperazine-1-carboxylate], the EC50 at TRPML2 (fluorescent calcium assay), at TRPML1 (fluorescent calcium assay) and at TRPML3 (fluorescent calcium assay) was below 100 nM throughout.
For the compound `C[C@H]1CN(C(=O)OC(C)(C)C)CCN1c1ncnc2c1c(C(F)(F)F)cn2-c1cccc(Cl)c1` [Compound 494, tert-butyl (S)-4-(7-(3-chlorophenyl)-5-(trifluoromethyl)-7H-pyrrolo[2,3-d]pyrimidin-4-yl)-3-methylpiperazine-1-carboxylate], the EC50 at TRPML2 was 100 to 500 nM; on TRPML1, below 100 nM; at TRPML3 it was below 100 nM.
With `C[C@H]1CN(C(=O)OC(C)(C)C)CCN1c1ncnc2c1c(C(F)(F)F)cn2-c1cc(F)cc(F)c1` [Compound 495], the values for the 50% effective concentration (EC50) on TRPML2, at TRPML1 and at TRPML3 were 100 to 500 nM, below 100 nM and below 100 nM, respectively.
Take `C[C@@H]1CN(c2ncnc3c2c(C(F)(F)F)cn3-c2cccc(F)c2)[C@@H](C)CN1C(=O)OC(C)(C)C` [Compound 496, tert-butyl (2R,5S)-4-(7-(3-fluorophenyl)-5-(trifluoromethyl)-7H-pyrrolo[2,3-d]pyrimidin-4-yl)-2,5-dimethylpiperazine-1-carboxylate]: the EC50 on TRPML2 is 100 to 500 nM; at TRPML1, below 100 nM; at TRPML3, below 100 nM.
As to `C[C@@H]1CN(c2ncnc3c2c(N2CCC2)cn3-c2cc(F)cc(F)c2)[C@@H](C)CN1C(=O)OC(C)(C)C` [Compound 497, tert-butyl (2R,5S)-4-(5-(azetidin-1-yl)-7-(3,5-difluorophenyl)-7H-pyrrolo[2,3-d]pyrimidin-4-yl)-2,5-dimethylpiperazine-1-carboxylate], the EC50 on TRPML2, on TRPML1 and on TRPML3 was below 100 nM each time.
Consider `C[C@H]1CN(C(=O)OC(C)(C)C)CCN1c1ncnc2c1c(N1CCC1)cn2-c1cc(F)cc(F)c1` [Compound 498, tert-butyl (S)-4-(5-(azetidin-1-yl)-7-(3,5-difluorophenyl)-7H-pyrrolo[2,3-d]pyrimidin-4-yl)-3-methylpiperazine-1-carboxylate], for which the EC50 at TRPML2, at TRPML1 and on TRPML3 was below 100 nM each time.
With `CCCN(C)c1cn(-c2cc(C#N)ccn2)c2ncnc(N3C[C@@H](C)N(C(=O)OC(C)(C)C)C[C@@H]3C)c12` [Compound 499, tert-butyl (2R,5S)-4-(7-(4-cyanopyridin-2-yl)-5-(methyl(propyl)amino)-7H-pyrrolo[2,3-d]pyrimidin-4-yl)-2,5-dimethylpiperazine-1-carboxylate], the results for the EC50 at TRPML2, at TRPML1 and at TRPML3 were 100 to 500 nM, below 100 nM and below 100 nM, respectively.
Take `C=CCOC(=O)N(CCC)c1cn(-c2cc(Cl)ccn2)c2ncnc(N3C[C@@H](C)N(C(=O)OC(C)(C)C)C[C@@H]3C)c12` [Compound 500, tert-butyl (2R,5S)-4-(5-(((allyloxy)carbonyl)(propyl)amino)-7-(4-chloropyridin-2-yl)-7H-pyrrolo[2,3-d]pyrimidin-4-yl)-2,5-dimethylpiperazine-1-carboxylate]: the EC50 on TRPML2 lay in the range of 500 to 2000 nM; on TRPML1 it was 100 to 500 nM; on TRPML3, 100 to 500 nM.
For `C[C@H]1CN(c2ncnc3c2c(C(F)(F)F)cn3-c2cc(C#N)ccn2)[C@@H](C)CN1C(=O)OC(C)(C)C` [Compound 502, tert-butyl (25,5S)-4-(7-(4-cyanopyridin-2-yl)-5-(trifluoromethyl)-7H-pyrrolo[2,3-d]pyrimidin-4-yl)-2,5-dimethylpiperazine-1-carboxylate], the EC50 is 100 to 500 nM on TRPML2, below 100 nM on TRPML1 and below 100 nM on TRPML3.
Consider `C[C@@H]1CN(c2ncnc3c2c(C(F)(F)F)cn3-c2cc(C#N)ccn2)[C@H](C)CN1C(=O)OC(C)(C)C` [Compound 503, tert-butyl (2R,5R)-4-(7-(4-cyanopyridin-2-yl)-5-(trifluoromethyl)-7H-pyrrolo[2,3-d]pyrimidin-4-yl)-2,5-dimethylpiperazine-1-carboxylate], for which the figures for the EC50 at TRPML2, at TRPML1 and on TRPML3 were above 2000 nM, below 100 nM and 100 to 500 nM, respectively.
As to `C[C@@H]1CN(c2ncnc3c2c(N2CC4(COC4)C2)cn3-c2cc(C#N)ccn2)[C@@H](C)CN1C(=O)OC(C)(C)C` [Compound 504, tert-butyl (2R,5S)-4-(7-(4-cyanopyridin-2-yl)-5-(2-oxa-6-azaspiro[3.3]heptan-6-yl)-7H-pyrrolo[2,3-d]pyrimidin-4-yl)-2,5-dimethylpiperazine-1-carboxylate], the EC50 at TRPML2 was 100 to 500 nM; at TRPML1, below 100 nM; on TRPML3, below 100 nM.
`C[C@@H]1CN(c2ncnc3c2c(C(F)(F)F)cn3-c2cc(F)ccn2)[C@@H](C)CN1C(=O)OC(C)(C)C` [Compound 505, tert-butyl (2R,5S)-4-(7-(4-fluoropyridin-2-yl)-5-(trifluoromethyl)-7H-pyrrolo[2,3-d]pyrimidin-4-yl)-2,5-dimethylpiperazine-1-carboxylate]: the EC50 at TRPML2 is above 2000 nM; on TRPML1, below 100 nM; on TRPML3, below 100 nM.
With `C[C@@H]1CN(c2ncnc3c2c(C(F)(F)F)cn3-c2cc(Cl)ccn2)[C@@H](C)CN1C(=O)OC(C)(C)C` [Compound 506, tert-butyl (2R,5S)-4-(7-(4-chloropyridin-2-yl)-5-(trifluoromethyl)-7H-pyrrolo[2,3-d]pyrimidin-4-yl)-2,5-dimethylpiperazine-1-carboxylate], the figures for the EC50 at TRPML2, at TRPML1 and on TRPML3 were 500 to 2000 nM, below 100 nM and below 100 nM, respectively.
As for `CCCOc1cn(-c2cc(C#N)ccn2)c2ncnc(N3C[C@@H](C)N(C(=O)OC(C)(C)C)C[C@@H]3C)c12` [Compound 507, tert-butyl (2R,5S)-4-(7-(4-cyanopyridin-2-yl)-5-propoxy-7H-pyrrolo[2,3-d]pyrimidin-4-yl)-2,5-dimethylpiperazine-1-carboxylate], the EC50 on TRPML2, at TRPML1 and on TRPML3 was below 100 nM throughout.
